pIC50: −log10 of the molar value.

Drawing on patent US10336761B2, “TGFβ receptor antagonist” (BRISTOL-MYERS SQUIBB COMPANY, priority 2015, dated 2019), this text covers IC50 for 33 molecules.

For this assay, the target named is HIS-TGFβR1 T204D (Homo sapiens (Human), UniProt P36897, T204D). Description: HTRF probe-displacement assay, HIS-TGFβR1 T204D. The class given is binding. The settings on record: 1 hour at room temperature.
Chain of HIS-TGFβR1 T204D (P36897 34-503 T204D): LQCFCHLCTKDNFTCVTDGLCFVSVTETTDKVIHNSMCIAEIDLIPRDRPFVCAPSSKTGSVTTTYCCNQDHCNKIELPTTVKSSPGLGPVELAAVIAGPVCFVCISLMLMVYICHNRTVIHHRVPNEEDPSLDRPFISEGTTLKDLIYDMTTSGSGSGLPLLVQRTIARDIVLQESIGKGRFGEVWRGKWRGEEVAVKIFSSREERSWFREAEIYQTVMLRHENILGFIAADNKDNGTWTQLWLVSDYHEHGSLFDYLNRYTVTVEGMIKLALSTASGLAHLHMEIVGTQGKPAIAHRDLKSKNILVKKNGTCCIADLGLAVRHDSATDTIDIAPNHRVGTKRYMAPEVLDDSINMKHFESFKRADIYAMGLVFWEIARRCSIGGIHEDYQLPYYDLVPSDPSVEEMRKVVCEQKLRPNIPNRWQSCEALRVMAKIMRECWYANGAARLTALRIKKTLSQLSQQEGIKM
`FC(F)(F)c1cccc(-c2nc(Nc3ccnc(Cl)c3)c3cccn3n2)n1` [Example 82, 2-chloro-N-{2-[6-(trifluoromethyl)pyridin-2-yl]pyrrolo[2,1-f][1,2,4]triazin-4-yl}pyridin-4-amine] gave a pIC50 of 5.57.

Take `COc1cccc(-c2nc(Nc3ccncc3F)c3c(C(O)CN4CCC(F)(F)CC4)ccn3n2)n1` (stereo not drawn) [Example 129, 2-(4,4-difluoropiperidin-1-yl)-1-{4-[(3-fluoropyridin-4-yl)amino]-2-(6-methoxypyridin-2-yl)pyrrolo[2,1-f][1,2,4]triazin-5-yl}ethan-1-ol]: the pIC50 was 7.42.

Regarding `O=C(NCc1nccs1)c1cnccc1Nc1nc(-c2cccc(C(F)F)n2)nn2cccc12` [Example 183, 4-({2-[6-(difluoromethyl)pyridin-2-yl]pyrrolo[2,1-f][1,2,4]triazin-4-yl}amino)-N-(1,3-thiazol-2-ylmethyl)pyridine-3-carboxamide], the pIC50 is 7.36.

For `O=C(NCCCN1CCS(=O)(=O)CC1)c1cnccc1Nc1nc(-c2cccc(C(F)F)n2)nn2cccc12` [Example 168, 4-({2-[6-(difluoromethyl)pyridin-2-yl]pyrrolo[2,1-f][1,2,4]triazin-4-yl}amino)-N-[3-(1,1-dioxo-1,4-thiomorpholin-4-yl)propyl]pyridine-3-carboxamide], the pIC50 is 8.07.

Molecule `CN1CCC(N(C)Cc2ccn3nc(-c4ccccn4)nc(Nc4ccncc4F)c23)CC1` [Example 279, 3-fluoro-N-(5-{[methyl(1-methylpiperidin-4-yl)amino]methyl}-2-(pyridin-2-yl)pyrrolo[2,1-f][1,2,4]triazin-4-yl)pyridin-4-amine] showed a pIC50 of 7.92.

On to `O=C(NC1CCOCC1)c1cnccc1Nc1nc(-c2cccc(C(F)F)n2)nn2cccc12` [Example 178, 4-({2-[6-(difluoromethyl)pyridin-2-yl]pyrrolo[2,1-f][1,2,4]triazin-4-yl}amino)-N-(oxan-4-yl)pyridine-3-carboxamide], for which the pIC50 is 6.66.

In the case of `COc1cccc(-c2nc(Nc3ccncc3F)c3cccn3n2)n1` [Example 58, 3-fluoro-N-[2-(6-methoxypyridin-2-yl)pyrrolo[2,1-f][1,2,4]triazin-4-yl]pyridin-4-amine], the pIC50 was 8.40.

In the case of `COc1cccc(-c2nc(Nc3ccncc3F)c3cc(CNC[C@@H](F)C(C)(C)O)cn3n2)n1` [Example 208, (3R)-3-fluoro-4-[({4-[(3-fluoropyridin-4-yl)amino]-2-(6-methoxypyridin-2-yl)pyrrolo[2,1-f][1,2,4]triazin-6-yl}methyl)amino]-2-methylbutan-2-ol], the pIC50 was 6.06.

`Cc1csc(-c2nc(Nc3ccncc3)c3cccn3n2)n1` [Example 88, N-[2-(4-methyl-1,3-thiazol-2-yl)pyrrolo[2,1-f][1,2,4]triazin-4-yl]pyridin-4-amine] had a negative-log IC50 (pIC50) of 8.82. This pIC50 is 2.76 log units higher than that of the molecule before.

Take `Fc1cnccc1Nc1nc(-c2cccc(OC(F)(F)F)n2)nn2cccc12` [Example 289, 3-fluoro-N-{2-[6-(trifluoromethoxy)pyridin-2-yl]pyrrolo[2,1-f][1,2,4]triazin-4-yl}pyridin-4-amine]: the pIC50 was 8.52.

Consider `Cc1nnc(NCc2ccn3nc(-c4ccccn4)nc(Nc4ccncc4F)c23)s1` [Example 308, 3-fluoro-N-(5-{[(5-methyl-1,3,4-thiadiazol-2-yl)amino]methyl}-2-(pyridin-2-yl)pyrrolo[2,1-f][1,2,4]triazin-4-yl)pyridin-4-amine], for which the pIC50 was 8.33.

On to `O=C(NC1CCC1)c1cnccc1Nc1nc(-c2cccc(C(F)F)n2)nn2cccc12` [Example 193, N-cyclobutyl-4-({2-[6-(difluoromethyl)pyridin-2-yl]pyrrolo[2,1-f][1,2,4]triazin-4-yl}amino)pyridine-3-carboxamide], for which the pIC50 was 7.64. Against the preceding molecule, the pIC50 is 0.69 log units lower.

Regarding `Clc1cnccc1Nc1nc(-c2ccccn2)nn2cccc12` [Example 54, 3-chloro-N-[2-(pyridin-2-yl)pyrrolo[2,1-f][1,2,4]triazin-4-yl]pyridin-4-amine], the pIC50 was 8.80.

`COc1cccc(-c2nc(Nc3ccncc3F)c3c(CN4CCC(F)(F)CC4)ccn3n2)n1` [Example 25, N-{5-[(4,4-difluoropiperidin-1-yl)methyl]-2-(6-methoxypyridin-2-yl)pyrrolo[2,1-f][1,2,4]triazin-4-yl}-3-fluoropyridin-4-amine] gave a pIC50 of 8.05. This pIC50 is 0.75 log units lower than that of the molecule before.

`COc1cccc(-c2nc(Nc3ccnc(NCCN4CCC(O)CC4)c3)c3cccn3n2)n1` [Example 132, 1-{2-[(4-{[2-(6-methoxypyridin-2-yl)pyrrolo[2,1-f][1,2,4]triazin-4-yl]amino}pyridin-2-yl)amino]ethyl}piperidin-4-ol] showed a pIC50 of 6.15.

As to `CC(=O)N1CCN(CC(=O)Nc2cc(Nc3nc(-c4cccc(C(F)(F)F)n4)nn4cccc34)ccn2)CC1` [Example 320, 2-(4-acetylpiperazin-1-yl)-N-[4-({2-[6-(trifluoromethyl)pyridin-2-yl]pyrrolo[2,1-f][1,2,4]triazin-4-yl}amino)pyridin-2-yl]acetamide], the pIC50 was 9.07.

The molecule `Fc1c(Nc2nc(-c3cccc(C(F)F)n3)nn3cccc23)ccnc1Cl` [Example 7, 2-chloro-N-{2-[6-(difluoromethyl)pyridin-2-yl]pyrrolo[2,1-f][1,2,4]triazin-4-yl}-3-fluoropyridin-4-amine] had a negative logarithm of the IC50 (pIC50) of 7.06.

`COc1cccc(-c2nc(Nc3ccnc(NCCN4CCOCC4)c3)c3c(C)ccn3n2)n1` [Example 137, 4-N-[2-(6-methoxypyridin-2-yl)-5-methylpyrrolo[2,1-f][1,2,4]triazin-4-yl]-2-N-[2-(morpholin-4-yl)ethyl]pyridine-2,4-diamine] gave a pIC50 of 6.92.

`Fc1cnccc1Nc1nc(-c2ccccn2)nn2ccc(CNC3CCCNC3)c12` (stereo not drawn) [Example 267, 3-fluoro-N-(5-{[(piperidin-3-yl)amino]methyl}-2-(pyridin-2-yl)pyrrolo[2,1-f][1,2,4]triazin-4-yl)pyridin-4-amine] showed a pIC50 of 8.62.

Consider `NC(=O)c1cnccc1Nc1nc(-c2ccccn2)nn2cccc12` [Example 83, 4-{[2-(pyridin-2-yl)pyrrolo[2,1-f][1,2,4]triazin-4-yl]amino}pyridine-3-carboxamide], for which the pIC50 is 9.12.

In the case of `Fc1cnccc1Nc1nc(-c2ccccn2)nn2ccc(CNC3CNC3)c12` [Example 311, N-(5-{[(azetidin-3-yl)amino]methyl}-2-(pyridin-2-yl)pyrrolo[2,1-f][1,2,4]triazin-4-yl)-3-fluoropyridin-4-amine], the pIC50 is 7.89.

`COc1cccc(-c2nc(Nc3ccnc(F)c3)c3cccn3n2)n1` [Example 94, 2-fluoro-N-[2-(6-methoxypyridin-2-yl)pyrrolo[2,1-f][1,2,4]triazin-4-yl]pyridin-4-amine] had a pIC50 of 6.20.

Turning to `O=C(CN1CCOCC1)Nc1cc(Nc2nc(-c3cccc(C(F)(F)F)n3)nn3cccc23)ccn1` [Example 331, 2-(morpholin-4-yl)-N-[4-({2-[6-(trifluoromethyl)pyridin-2-yl]pyrrolo[2,1-f][1,2,4]triazin-4-yl}amino)pyridin-2-yl]acetamide], the pIC50 was 8.59.

Molecule `Cc1cccc(-c2nc(Nc3ccncc3C(=O)NCCN3CCCC3)c3cccn3n2)n1` [Example 152, 4-{[2-(6-methylpyridin-2-yl)pyrrolo[2,1-f][1,2,4]triazin-4-yl]amino}-N-[2-(pyrrolidin-1-yl)ethyl]pyridine-3-carboxamide] had a pIC50 of 8.28.

`COc1cccc(-c2nc(Nc3ccncc3F)c3ccc(F)n3n2)n1` [Example 41, 3-fluoro-N-[7-fluoro-2-(6-methoxypyridin-2-yl)pyrrolo[2,1-f][1,2,4]triazin-4-yl]pyridin-4-amine] gave a negative logarithm of the IC50 (pIC50) of 7.06.

In turn, `Fc1ccc(-c2nc(Nc3cc(Cl)ncc3F)c3cccn3n2)nc1` [Example 317, 2-chloro-5-fluoro-N-[2-(5-fluoropyridin-2-yl)pyrrolo[2,1-f][1,2,4]triazin-4-yl]pyridin-4-amine] gave a pIC50 of 5.52.

Regarding `COc1cccc(-c2nc(NCc3ccncc3)c3cccn3n2)n1` [Example 31, 2-(6-methoxypyridin-2-yl)-N-(pyridin-4-ylmethyl)pyrrolo[2,1-f][1,2,4]triazin-4-amine], the negative logarithm of the IC50 (pIC50) is 6.09. Compared with the last molecule, the pIC50 is 0.57 log units higher.

The molecule `CN1CCN(Cc2ccn3nc(-c4cccc(C(F)F)n4)nc(Nc4ccncc4F)c23)CC1` [Example 115, N-{2-[6-(difluoromethyl)pyridin-2-yl]-5-[(4-methylpiperazin-1-yl)methyl]pyrrolo[2,1-f][1,2,4]triazin-4-yl}-3-fluoropyridin-4-amine] showed a pIC50 of 8.24.

In the case of `Fc1cnccc1Nc1nc(-c2ccccn2)nn2ccc(CNCC3CCNCC3)c12` [Example 238, 3-fluoro-N-(5-{[(piperidin-4-ylmethyl)amino]methyl}-2-(pyridin-2-yl)pyrrolo[2,1-f][1,2,4]triazin-4-yl)pyridin-4-amine], the pIC50 is 8.54.

In the case of `CCNC(=O)Nc1cc2c(Nc3ccncc3F)nc(-c3cccc(OC)n3)nn2c1` [Example 72, 3-ethyl-1-{4-[(3-fluoropyridin-4-yl)amino]-2-(6-methoxypyridin-2-yl)pyrrolo[2,1-f][1,2,4]triazin-6-yl}urea], the pIC50 was 6.43.

`COc1cccc(-c2nc(Nc3ccncc3F)c3c(CCN4CCOCC4)ccn3n2)n1` [Example 113, 3-fluoro-N-[2-(6-methoxypyridin-2-yl)-5-[2-(morpholin-4-yl)ethyl]pyrrolo[2,1-f][1,2,4]triazin-4-yl]pyridin-4-amine] gave a pIC50 of 6.92.

`N#CCCC(=O)Nc1cc(Nc2nc(-c3cccc(C(F)(F)F)n3)nn3cccc23)ccn1` [Example 338, 3-cyano-N-[4-({2-[6-(trifluoromethyl)pyridin-2-yl]pyrrolo[2,1-f][1,2,4]triazin-4-yl}amino)pyridin-2-yl]propanamide] showed a pIC50 of 9.10.

The molecule `CC(=O)Nc1nccc(Nc2nc(-c3cccc(C(F)F)n3)nn3cccc23)c1F` [Example 229, N-[4-({2-[6-(difluoromethyl)pyridin-2-yl]pyrrolo[2,1-f][1,2,4]triazin-4-yl}amino)-3-fluoropyridin-2-yl]acetamide] gave a pIC50 of 8.29.
